Reference: patent US4129648A, “Method for reducing endogenous prostaglandin synthesis” (priority 1977, dated 1978)

What was measured:
[1] = test system: bronchoconstriction induced by sodium arachidonate; experiment: Dynamic compliance and airway resistance in the anaesthetized guinea pig challenged with sodium arachidonate; type: in vivo
Method: (§1) The ability of Cohn subfraction IV4 and haptoglobin to reduce the transient hypertension caused by administration of sodium arachidonate in the guinea pig was also measured. These tests were carried out as follows.
(§2) Male albino guinea pigs weighing 400-600 g each (Dunkin Hartley strain) were anesthetized by administration of sodium pentobarbitone, 60 mg/kg intraperitoneally. The trachea was cannulated for artificial ventilation by a Starling pump (5-8 ml at 72 strokes per minute) via a Fleisch 0000 pneumatachograph. The difference in pressure across this device was measured with a Grass differential pressure transducer. […] Transpulmonary pressure (TPP) was measured with another differential pressure transducer via side arms to the thoracic cavity and the tracheal cannula. The signals for low and TPP were applied to the analogue computer so that there was approximately 180° phase difference. The computer derived the dynamic compliance and resistance from the in-going signals. Drugs were administered intravenously via the external jugular vein. A 1 mg/ml solution of sodium arachidonate was prepared as follows. […] These doses were given at 30 minute intervals to produce a large but submaximal bronchoconstriction. After 2 or 3 similar responses to the same dose of sodium arachidonate had been obtained, the test substance in saline (0.1 to 1 ml) was injected intravenously. At various times thereafter, a challenge was given.

[2] = test system: transient hypertension induced by sodium arachidonate; experiment: Mean arterial blood pressure in the anaesthetized guinea pig challenged with sodium arachidonate; type: in vivo
Method: as §1, §2
The left carotid artery was cannulated for recording blood pressure with a Grass pressure transducer (Consolidated Dynamics 0.75 cm Hg type 4L221) linked to a Devices twin channel polygraph via a CD2D pre-amplifier. Electrocardiograms were recorded using a DC6 pre-amplifier linked to the Devices polygraph.

[3] = dose 0.04 mg/kg intravenously, challenge 30 min after treatment
[4] = dose 0.20 mg/kg intravenously, challenge 30 min after treatment
[5] = dose 0.50 mg/kg intravenously, challenge 30 min after treatment
[6] = dose 0.50 mg/kg intravenously, challenge 60 min after treatment
[7] = dose 25μ/kg intravenously, challenge 30 min after treatment
[8] = dose 25μ/kg intravenously, challenge 60 min after treatment
[9] = dose 25μ/kg intravenously, challenge 90 min after treatment
[10] = dose 25μ/kg intravenously, challenge 120 min after treatment
[11] = dose 25μ/kg intravenously, challenge 150 min after treatment
[12] = dose 50μ/kg intravenously, challenge 30 min after treatment
[13] = dose 50μ/kg intravenously, challenge 60 min after treatment
[14] = dose 50μ/kg intravenously, challenge 90 min after treatment
[15] = dose 50μ/kg intravenously, challenge 120 min after treatment
[16] = dose 50μ/kg intravenously, challenge 150 min after treatment
[17] = dose 50μ/kg intravenously, challenge 180 min after treatment
[18] = dose 50μ/kg intravenously, challenge 210 min after treatment
[19] = dose 50μ/kg intravenously, challenge 240 min after treatment
[20] = dose 5 mg/kg intravenously, challenge 45 sec after treatment

C[C@]12CCC(=O)C=C1CC[C@@H]1[C@@H]2[C@@H](O)C[C@]2(C=O)[C@@H](C(=O)CO)CC[C@@H]12 [Aldosterone, aldosterone]
Mean % Inhibition (± s.e.) of educed dynamic lung compliance [1, 3]: 0% | Mean % Inhibition (± s.e.) of increased airway resistance [1, 3]: 9.0% | Mean % Inhibition (± s.e.) of educed dynamic lung compliance [1, 4]: 1.0% | Mean % Inhibition (± s.e.) of increased airway resistance [1, 4]: 14.0% | Mean % Inhibition (± s.e.) of educed dynamic lung compliance [1, 5]: 10.5 ± 6.5% | Mean % Inhibition (± s.e.) of increased airway resistance [1, 5]: 0% | Mean % Inhibition (± s.e.) of educed dynamic lung compliance [1, 6]: 5.0 ± 5.0% | Mean % Inhibition (± s.e.) of increased airway resistance [1, 6]: 6.5 ± 6.5%

ACTH: a drenocorticotrophin (ACTH), well known anti-inflammatory agent (SYSMEHFRWGKPVGKKRRPVKVYPNGAEDESAEAFPLEF; Corticotropin; UniProt P01189 138-176, looked up)
Mean % Inhibition (± s.e.) of educed dynamic lung compliance [1, 7]: 16.5 ± 16.5% | Mean % Inhibition (± s.e.) of increased airway resistance [1, 7]: 31.5 ± 24.5% | Mean % Inhibition (± s.e.) of educed dynamic lung compliance [1, 8]: 35.5 ± 2.5% | Mean % Inhibition (± s.e.) of increased airway resistance [1, 8]: 55.5 ± 3.5% | Mean % Inhibition (± s.e.) of educed dynamic lung compliance [1, 9]: 62.5 ± 12.5% | Mean % Inhibition (± s.e.) of increased airway resistance [1, 9]: 72.5 ± 12.5% | Mean % Inhibition (± s.e.) of educed dynamic lung compliance [1, 10]: 53.0 ± 3.0% | Mean % Inhibition (± s.e.) of increased airway resistance [1, 10]: 68.5 ± 16.5% | Mean % Inhibition (± s.e.) of educed dynamic lung compliance [1, 11]: 63.0% | Mean % Inhibition (± s.e.) of increased airway resistance [1, 11]: 85.0% | Mean % Inhibition (± s.e.) of increased airway resistance [1, 12]: 52.0% | Mean % Inhibition (± s.e.) of increased airway resistance [1, 13]: 73.0% | Mean % Inhibition (± s.e.) of increased airway resistance [1, 14]: 73.0% | Mean % Inhibition (± s.e.) of increased airway resistance [1, 15]: 91.0% | Mean % Inhibition (± s.e.) of increased airway resistance [1, 16]: 68.0% | Mean % Inhibition (± s.e.) of increased airway resistance [1, 17]: 59.0% | Mean % Inhibition (± s.e.) of increased airway resistance [1, 18]: 66.0% | Mean % Inhibition (± s.e.) of increased airway resistance [1, 19]: 67.0% | Mean % Inhibition (± s.e.) of educed dynamic lung compliance ([1]; intravenously, challenge 30 min after treatment): 67.0% | Mean % Inhibition (± s.e.) of educed dynamic lung compliance ([1]; intravenously, challenge 60 min after treatment): 50.0% | Mean % Inhibition (± s.e.) of educed dynamic lung compliance ([1]; intravenously, challenge 90 min after treatment): 67.0% | Mean % Inhibition (± s.e.) of educed dynamic lung compliance ([1]; intravenously, challenge 120 min after treatment): 75.0% | Mean % Inhibition (± s.e.) of educed dynamic lung compliance ([1]; intravenously, challenge 150 min after treatment): 58.0% | Mean % Inhibition (± s.e.) of educed dynamic lung compliance ([1]; intravenously, challenge 180 min after treatment): 75.0% | Mean % Inhibition (± s.e.) of educed dynamic lung compliance ([1]; intravenously, challenge 210 min after treatment): 75.0% | Mean % Inhibition (± s.e.) of educed dynamic lung compliance ([1]; intravenously, challenge 240 min after treatment): 75.0% | Mean % Inhibition (± s.e.) of hypertension [2, 7]: 24.0 ± 10.0% | Mean % Inhibition (± s.e.) of hypertension [2, 8]: 28.5 ± 14.5% | Mean % Inhibition (± s.e.) of hypertension [2, 9]: 49.0 ± 15.0% | Mean % Inhibition (± s.e.) of hypertension [2, 10]: 53.5 ± 3.5% | Mean % Inhibition (± s.e.) of hypertension [2, 11]: 17.0% | Mean % Inhibition (± s.e.) of hypertension [2, 12]: 83.0% | Mean % Inhibition (± s.e.) of hypertension [2, 13]: 67.0% | Mean % Inhibition (± s.e.) of hypertension [2, 14]: 100.0% | Mean % Inhibition (± s.e.) of hypertension [2, 15]: 67.0% | Mean % Inhibition (± s.e.) of hypertension [2, 16]: 100.0% | Mean % Inhibition (± s.e.) of hypertension [2, 17]: 83.0% | Mean % Inhibition (± s.e.) of hypertension [2, 18]: 100.0% | Mean % Inhibition (± s.e.) of hypertension [2, 19]: 100.0%

Haptoglobin heated to 60° C 15 min: haptoglobin from Cohn subfraction IV4 by ammonium sulphate purification, partially heat-inactivated
Mean % Inhibition (± s.e.) of educed dynamic lung compliance [1, 20]: 6.3 ± 6.3% | Mean % Inhibition (± s.e.) of increased airway resistance [1, 20]: 10.3 ± 5.2% | Mean % Inhibition (± s.e.) of hypertension [2, 20]: 7.0 ± 7.0%
